Results from article doi:10.1101/2022.04.11.487889v1 (biorxiv, 2022).

Target: T1, recombinant human PRDX6 (peroxiredoxin 6) (Homo sapiens, UniProt P30041)
T1 sequence (P30041 1-224): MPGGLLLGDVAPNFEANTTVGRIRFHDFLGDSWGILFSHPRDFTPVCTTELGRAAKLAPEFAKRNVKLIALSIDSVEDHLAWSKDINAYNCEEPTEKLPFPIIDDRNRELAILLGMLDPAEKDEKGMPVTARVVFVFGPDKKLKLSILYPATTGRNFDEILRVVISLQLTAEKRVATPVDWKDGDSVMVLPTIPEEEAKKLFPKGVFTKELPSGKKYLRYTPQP
Assay: radioactive PLA2 assay, […]-DPPC liposomes, scintillation counting
Assay type: biochemical

**Q.** CCN(CC)CCN(Cc1ccc(-c2ccc(C(F)(F)F)cc2)cc1)C(=O)Cn1c(SCc2ccc(F)cc2)nc(=O)c2c1CCC2 [Darapladib] was tested. Which IC50 did it give?
**A.** Its IC50 is roughly 500 nM.
